The values below come from patent publication US12502383B2, “Pharmaceutical composition of cyclooxygenase-2 inhibitors” (THEMIS MEDICARE LIMITED, priority 2019, dated 2025).

For data set [1] the following is noted: after oral and intravenous administration; cited from earlier work.
The conditions of data set [2]: cited from earlier work.
Data set [3] is described as follows: Solubilization of Etoricoxib in solubilizers. The format is physicochemical. The protocol:
The ratio of active to solubilizers between 1:35 to 1:135.71 gives good solubilization of coxib. Satisfactory compositions can be produced wherein ration of active to solubilizer is between 1:35 to 1:58.33. Etoricoxib 1.4 mg ie 0.14% w/v can be solubilized in Twin 80, 8% w/v and Transcutol 3% w/v. It can also be solubilized in Ethanol and Tween 8% w/v each and Transcutol 3% w/v. One can consider it as 3 solubilizers or 2 solubilizers and one solvent.

For data set [4] the following is noted: cited from earlier work. The source holds these as a separate data set.
The conditions of data set [5]: in vivo; cited from earlier work.
For the next data set, the system named is Dog. Particulars: intravenous: Dog; cited from earlier work.
For another data set, the system named is rabbit. Conditions: intravenous: rabbit; cited from earlier work.
A further data set deals with mouse. Conditions: cited from earlier work.

Each structure is given as a SMILES string. Read-outs that look alike come from different tables or passages of the source. Bounds are passed on as bounds.

On to `Cc1ccc(-c2ncc(Cl)cc2-c2ccc(S(C)(=O)=O)cc2)cn1` [Etoricoxib], for which the Bioavailability in data set [1] is given as 100%. In data set [2], the protein binding entry is listed as “about 92%”. Further, the Etoricoxib solubilized entry in data set [3] (in Ethanol and Tween 8% w/v each and Transcutol 3% w/v) is listed as “solubilized”. The molecule further yielded an Etoricoxib solubilized in data set [3] (in Twin 80, 8% w/v and Transcutol 3% w/v) of 1.4 mg. For the same molecule, in data set [4], the “Solubility in 2-propanol” value is “sparingly soluble”; the “Solubility in isopropyl acetate, ethanol and toluene” value was “soluble”; the “Solubility in methanol, tetrahydrofuran, dimethyl sulfoxide, methyl ethyl ketone, dimethyl formamide, and chloroform” value is reported as “freely soluble”; the Solubility in water entry is “practically insoluble”.
Consider `Cc1ccc(-c2cc(C(F)(F)F)nn2-c2ccc(S(N)(=O)=O)cc2)cc1` [Celecoxib, 4-[5-(4-methylphenyl)-3-(trifluoromethyl)pyrazol-1-yl]benzenesulfonamide], for which, in data set [5], the drug eliminated unchanged is recorded as below 3%. Further, in data set [4], the “Solubility in anhydrous ethanol” value was “freely soluble to soluble”, the “Solubility in methylene chloride” value is “soluble”, the Solubility in water result is “practically insoluble” and the “solubility in DMF” value was “approximately 25 mg/ml”. In data set [4], the “solubility in DMSO” value was “approximately 16.6 mg/ml” and the solubility in ethanol result is recorded as “approximately 25 mg/ml”.
In the case of `CCOCCOCCO` [Transcutol, Diethylene Glycol Monoethyl Ether], the LD50 was 3 mL/kg with Dog, 2500 µL/kg in the data set on rabbit, 4300 µL/kg with mouse (intravenous: mouse) and 5500 µL/kg in the data set on mouse (subcutaneous: mouse).
